# Test results from patent US12226405B2, “Compounds and compositions for inhibiting the activity of HIF2-alpha and their methods of use” (Novartis AG, priority 2020, dated 2025).
# pIC50: −log10 of the molar value.
# What was measured:
# [1] = tested on: HIF2α-regulated expression of the endogenous target gene hEGLN3 in 786-O cells; assay: Cellular iScript assay for HIF2α (quantitative RT-PCR of hEGLN3); type: cell-based, human; settings: Homo sapiens, 786-0, 48 hours incubation
# Summary of the method: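 786-O cells were exposed to eleven 2-fold compound dilutions for 48 h at 37° C. Lysates underwent one-step TaqMan qRT-PCR for hEGLN3 with beta-actin as reference; 2^(−ΔΔCt) versus DMSO, as % of control, was fit with a four-parameter model to give IC50.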
# [2] = tested on: HIF2α-dependent transcription in 786-O-HRE-Luc cells; assay: In vitro cellular hypoxia response element (HRE) reporter gene assay (RGA) for HIF2α; type: cell-based, human; settings: Homo sapiens, 24 hours incubation
# Summary of the method: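 Renal carcinoma cells carrying a 4×HRE-driven PEST-destabilised firefly luciferase were treated a day after seeding with eleven 2-fold compound dilutions (0.1% DMSO) for 24 h at 37° C. BrightGlo luminescence, background-subtracted and expressed as % of DMSO control, was fitted four-parametrically for IC50.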
# [3] = target: HIF2α PAS-B domain (236-350, biotinylated on the N-terminus) (Homo sapiens (Human), UniProt Q99814)
# Chain of HIF2α PAS-B domain (236-350, biotinylated on the N-terminus) (Q99814 236-350): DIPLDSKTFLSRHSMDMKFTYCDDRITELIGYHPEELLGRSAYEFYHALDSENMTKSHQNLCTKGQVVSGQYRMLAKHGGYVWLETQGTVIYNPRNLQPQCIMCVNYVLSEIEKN
# Protocol: The assay buffer contained 50 mM Tris-HCl pH7 (Sigma), 20 mM NaCl (Fluka), 0.02% BSA (Sigma), 0.005% Triton X-100 (Pierce) and 1 mM DTT (Fluka). After a 30 min incubation period, 5 μL Streptavidin PVT SPA Beads (Perkin Elmer) at 1.2 mg/mL, diluted in the buffer, were added.
Structure (SMILES),pIC50 [1],pIC50 [2],pIC50 [3]
"FC(F)OC1=CC(C(F)(F)F)=CN2C[C@@]3(N=C12)c1ccc(I)cc1OC[C@@H]3F [Example 60, (2′S,3R)-8′-(difluoromethoxy)-3-fluoro-7-iodo-6′-(trifluoromethyl)-3′H-spiro[chroman-4,2′-imidazo[1,2-a]pyridine]]",7.57,7.19,8.22
"FC(F)OC1=CC(C(F)(F)F)=CN2C[C@@]3(N=C12)c1ccc(C(F)(F)F)cc1OC[C@@H]3F [Example 61, (2′S,3R)-8′-(difluoromethoxy)-3-fluoro-6′,7-bis(trifluoromethyl)-3′H-spiro[chroman-4,2′-imidazo[1,2-a]pyridine]]",7.29,6.84,7.77
"Fc1cccc2c1OC[C@H](F)[C@@]21CN2C=C(C(F)(F)F)C=C(OC(F)F)C2=N1 [Example 62, (2′S,3R)-8′-(difluoromethoxy)-3,8-difluoro-6′-(trifluoromethyl)-3′H-spiro[chroman-4,2′-imidazo[1,2-a]pyridine]]",6.99,6.32,7.89
"Fc1cccc2c1COC[C@@]21CN2C=C(C(F)(F)F)C=C(OC(F)F)C2=N1 [Example 63, (S)-8-(difluoromethoxy)-8′-fluoro-6-(trifluoromethyl)-3H-spiro[imidazo[1,2-a]pyridine-2,4′-isochroman]]",6.71,6.33,7.96
"N#CC1=CN2C[C@@]3(CCSc4c3ccc(Cl)c4F)N=C2C(OC(F)F)=C1 [Example 64, (S)-7′-chloro-8-(difluoromethoxy)-8′-fluoro-3H-spiro[imidazo[1,2-a]pyridine-2,4′-thiochroman]-6-carbonitrile]",7.29,6.63,8.00
"Fc1cccc2c1SCC[C@@]21CN2C=C(C(F)(F)F)C=C(OC(F)F)C2=N1 [Example 65, (S)-8-(difluoromethoxy)-8′-fluoro-6-(trifluoromethyl)-3H-spiro[imidazo[1,2-a]pyridine-2,4′-thiochroman]]",7.52,6.94,≥ 8.52
"N#CC1=CN2C[C@@]3(CCSc4c(F)cccc43)N=C2C(OC(F)F)=C1 [Example 66, (S)-8-(difluoromethoxy)-8′-fluoro-3H-spiro[imidazo[1,2-a]pyridine-2,4′-thiochroman]-6-carbonitrile]",7.33,6.41,≥ 8.10
"Fc1c(C(F)(F)F)ncc2c1SCC[C@@]21CN2C=C(C(F)(F)F)C=C(OC(F)F)C2=N1 [Example 67, (S)-8-(difluoromethoxy)-8′-fluoro-6,7′-bis(trifluoromethyl)-2′,3′-dihydro-3H-spiro[imidazo[1,2-a]pyridine-2,4′-thiopyrano[3,2-c]pyridine]]",7.24,6.97,7.82
"Fc1cccc2c1OCCC[C@@]21CN2C=C(C(F)(F)F)C=C(OC(F)F)C2=N1 [Example 69, (S)-8′-(difluoromethoxy)-9-fluoro-6′-(trifluoromethyl)-3,4-dihydro-2H,3′H-spiro[benzo[b]oxepine-5,2′-imidazo[1,2-a]pyridine]]",7.36,6.56,8.05
"FC(F)OC1=CC(C(F)(F)F)=CN2C[C@@]3(CCC(F)(F)c4c3ccnc4C(F)F)N=C12 [Example 70, (S)-8-(difluoromethoxy)-1′-(difluoromethyl)-8′,8′-difluoro-6-(trifluoromethyl)-7′,8′-dihydro-3H,6′H-spiro[imidazo[1,2-a]pyridine-2,5′-isoquinoline]]",7.02,5.78,7.70
"N#CC1=CN2C[C@@]3(CCc4cc(I)ccc43)N=C2C(OC(F)F)=C1 [Example 73, (S)-8-(difluoromethoxy)-5′-iodo-2′,3′-dihydro-3H-spiro[imidazo[1,2-a]pyridine-2,1′-indene]-6-carbonitrile]",6.87,6.27,≥ 8.22
"Fc1c(C(F)(F)F)ccc2c1CC[C@@]21CN2C=C(C(F)(F)F)C=C(OC(F)F)C2=N1 [Example 74, (S)-8-(difluoromethoxy)-4′-fluoro-5′,6-bis(trifluoromethyl)-2′,3′-dihydro-3H-spiro[imidazo[1,2-a]pyridine-2,1′-indene]]",6.97,6.29,≥ 8.00
"COc1ccc2c(c1F)CCC[C@@]21CN2C=C(C(F)(F)F)C=C(F)C2=N1 [Example 76, (S)-5′,8-difluoro-6′-methoxy-6-(trifluoromethyl)-3′,4′-dihydro-2′H,3H-spiro[imidazo[1,2-a]pyridine-2,1′-naphthalene]]",6.76,6.11,7.31
"FC1=CC(C(F)(F)F)=CN2C[C@@]3(CCCc4cc(C(F)(F)F)ccc43)N=C12 [Example 77, (S)-8-fluoro-6,6′-bis(trifluoromethyl)-3′,4′-dihydro-2′H,3H-spiro[imidazo[1,2-a]pyridine-2,1′-naphthalene]]",6.99,6.22,≥ 8.52
"COC1=CC(C(F)(F)F)=CN2C[C@@]3(CCCc4c3ccc(Br)c4F)N=C12 [Example 80, (S)-6′-bromo-5′-fluoro-8-methoxy-6-(trifluoromethyl)-3′,4′-dihydro-2′H,3H-spiro[imidazo[1,2-a]pyridine-2,1′-naphthalene]]",6.97,5.69,7.96
"Fc1ccc2c(c1Cl)CCC[C@@]21CN2C=C(C(F)(F)F)C=C(OC(F)F)C2=N1 [Example 82, (5)-5′-chloro-8-(difluoromethoxy)-6′-fluoro-6-(trifluoromethyl)-3′,4′-dihydro-2′H,3H-spiro[imidazo[1,2-a]pyridine-2,1′-naphthalene]]",7.41,6.81,≥ 8.52
"Fc1c(Br)ccc2c1[C@@H](F)[C@H](F)C[C@@]21CN2C=C(C(F)(F)F)C=C(OC(F)F)C2=N1 [Example 83, (2S,3′R,4′R)-6′-bromo-8-(difluoromethoxy)-3′,4′,5′-trifluoro-6-(trifluoromethyl)-3′,4′-dihydro-2′H,3H-spiro[imidazo[1,2-a]pyridine-2,1′-naphthalene]]",7.52,7.57,8.05
"COc1ccc2c(c1F)CCC[C@@]21CN2C=C(C(F)(F)F)C=C(OC(F)F)C2=N1 [Example 84, (S)-8-(difluoromethoxy)-5′-fluoro-6′-methoxy-6-(trifluoromethyl)-3′,4′-dihydro-2′H,3H-spiro[imidazo[1,2-a]pyridine-2,1′-naphthalene]]",7.16,6.74,8.52
"Fc1ccc2c(c1F)CCC[C@@]21CN2C=C(C(F)(F)F)C=C(OC(F)F)C2=N1 [Example 85, (S)-8-(difluoromethoxy)-5′,6′-difluoro-6-(trifluoromethyl)-3′,4′-dihydro-2′H,3H-spiro[imidazo[1,2-a]pyridine-2,1′-naphthalene]]",7.15,6.69,8.40
"FC(F)OC1=CC(C(F)(F)F)=CN2C[C@@]3(CCCc4cc(C(F)(F)F)ccc43)N=C12 [Example 86, (S)-8-(difluoromethoxy)-6,6′-bis(trifluoromethyl)-3′,4′-dihydro-2′H,3H-spiro[imidazo[1,2-a]pyridine-2,1′-naphthalene]]",7.19,6.75,7.89
"FC(F)OC1=CC(C(F)(F)F)=CN2C[C@@]3(CCCc4c(Cl)cccc43)N=C12 [Example 88, (S)-5′-chloro-8-(difluoromethoxy)-6-(trifluoromethyl)-3′,4′-dihydro-2′H,3H-spiro[imidazo[1,2-a]pyridine-2,1′-naphthalene]]",7.49,6.85,≥ 8.40
"Fc1c(Br)ccc2c1CCC[C@@]21CN2C=C(Cl)C=C(OC(F)F)C2=N1 [Example 89, (S)-6′-bromo-6-chloro-8-(difluoromethoxy)-5′-fluoro-3′,4′-dihydro-2′H,3H-spiro[imidazo[1,2-a]pyridine-2,1′-naphthalene]]",7.47,6.66,≥ 8.15
"N#CC1=CN2C[C@@]3(CCCc4c3ccc(F)c4F)N=C2C(OC(F)F)=C1 [Example 91, (S)-8-(difluoromethoxy)-5′,6′-difluoro-3′,4′-dihydro-2′H,3H-spiro[imidazo[1,2-a]pyridine-2,1′-naphthalene]-6-carbonitrile]",7.52,6.58,8.30
"N#CC1=CN2C[C@@]3(CCC(F)(F)c4c3ccc(Br)c4F)N=C2C(OC(F)F)=C1 [Example 92, (S)-6′-bromo-8-(difluoromethoxy)-4′,4′,5′-trifluoro-3′,4′-dihydro-2′H,3H-spiro[imidazo[1,2-a]pyridine-2,1′-naphthalene]-6-carbonitrile]",6.82,6.20,7.54
"N#CC1=CN2C[C@@]3(CCCc4c3ccnc4Cl)N=C2C(OC(F)F)=C1 [Example 94, (S)-1′-chloro-8-(difluoromethoxy)-7′,8′-dihydro-3H,6′H-spiro[imidazo[1,2-a]pyridine-2,5′-isoquinoline]-6-carbonitrile]",6.71,5.65,7.48
"FCOC1=CC(C(F)(F)F)=CN2C[C@@]3(CCOc4c(Cl)cccc43)N=C12 [Example 95, (S)-8-chloro-8′-(fluoromethoxy)-6′-(trifluoromethyl)-3′H-spiro[chromane-4,2′-imidazo[1,2-a]pyridine]]",6.74,6.57,7.64
